Literature values as cited in patent EP3954777A1, “METHOD FOR ENZYMATIC DEGRADATION OF BITTER COMPOUNDS IN AGRO-INDUSTRIAL BY-PRODUCTS” (SternEnzym GmbH & Co. KG, priority 2020, dated 2022).

Test system: human test persons
Details: bitter taste

## kaempferol 3-O-(2"'-O-sinapoyl-β-sophoroside)
Average (Hald et al., 2019)
  level that, on average, can be tasted by humans: 3.4 µmol/L
Lowest (Hald et al., 2019)
  lowest level detectable by human test persons: 1.7 µmol/L
